Key:
[1] = The release rate of the free drug from the substrate in presence of Cathepsin B by Cathepsin B assay; format: ADME
[2] = The release rate of the free drug from the substrate in human plasma by human plasma stability assay; Not hydrolyzed; format: ADME, cell-free
Rattus norvegicus = organism: Rattus norvegicus; assay: The release rate of the free drug from the substrate in rat liver lysosomal preparation by rat liver lysosomal assay; format: ADME
[3] = The release rate of the free drug from the substrate in human plasma by human plasma stability assay; format: ADME, cell-free

Which results are given for `COc1cccc2c1C(=O)c1c(O)c3c(c(O)c1C2=O)C[C@@](O)(C(=O)CO)C[C@@H]3OC1CC(NC(=O)OCc2ccc(NC(=O)[C@H](CCCCN)NC(=O)[C@H](Cc3ccccc3)NC(=O)OCc3ccccc3)cc2)C(O)C(C)O1` (some centres not stated)?
T1/2 [1]: 8 min; T1/2 [2]: Not hydrolyzed; T1/2 (Rattus norvegicus): 29 min

Which results are given for `COC12C(COC(N)=O)C3=C(C(=O)C(C)=C(N)C3=O)N1CC1C2N1C(=O)OCc1ccc(NC(=O)[C@H](CCCCN)NC(=O)[C@H](Cc2ccccc2)NC(=O)OC(C)(C)C)cc1` (some centres not stated)?
T1/2 [3]: 149 h; T1/2 [1]: 10 min; T1/2 (Rattus norvegicus): 24 min

Which results are given for `CC(=O)O[C@H]1C(=O)[C@@]2(C)C([C@H](OC(=O)c3ccccc3)[C@]3(O)C[C@H](OC(=O)[C@H](OC(=O)OCc4ccc(NC(=O)[C@H](CCCCN)NC(=O)[C@H](Cc5ccccc5)NC(=O)OCc5ccccc5)cc4)[C@@H](NC(=O)c4ccccc4)c4ccccc4)C(C)=C1C3(C)C)[C@]1(OC(C)=O)COC1C[C@@H]2O` (some centres not stated)?
T1/2 [1]: 540 min; T1/2 [2]: Not hydrolyzed; T1/2 (Rattus norvegicus): 19 min

With `CC(=O)O[C@H]1C(=O)[C@@]2(C)C([C@H](OC(=O)c3ccccc3)[C@]3(O)C[C@H](OC(=O)[C@H](O)[C@@H](NC(=O)c4ccccc4)c4ccccc4)C(C)=C1C3(C)C)[C@]1(OC(C)=O)COC1C[C@@H]2OC(=O)OCc1ccc(NC(=O)[C@H](CCCCN)NC(=O)[C@H](Cc2ccccc2)NC(=O)OC(C)(C)C)cc1` (some centres not stated) as the compound, how does the T1/2 [1] read?
Its T1/2 is 40 min.

And the T1/2 [2]?
Its T1/2 is “Not hydrolyzed”.

And the T1/2 (Rattus norvegicus)?
Its T1/2 is 66 min.

From ChEMBL document CHEMBL1130689, “Cathepsin B-sensitive dipeptide prodrugs. 2. Models of anticancer drugs paclitaxel (Taxol), mitomycin C and doxorubicin” (Bioorg Med Chem Lett, 1998)
